The series can be described thus: Solubility in 10% v/v propylene glycol. The format is physicochemical. To be noted: 10% v/v propylene glycol aqueous solution, aqueous with cosolvent or surfactant or cyclodextrin, thermodynamic from solid, ambient conditions, stirred 5 hours, read-out: Solubility, Concentration. As for the experimental part: The potential of temozolomide esters used as topical and transdermal prodrugs is first proven through studies of their solubility. That is a decreased trend of solubility in an aqueous solution with increase of the length of the ester hydrocarbon alkyl chain of the temozolomide esters. It is clear the solubility constantly decreases from the methyl ester to the octyl ester, while temozolomide itself is 3.0 mg/ml similar to that of the methyl ester. […] Similarly to the esters, the solubility of the temozolomide amide products in the aqueous solution is considerably lower than that of temozolomide.
The solubility of temozolomide and the temozolomide esters was determined in 10% v/v propylene glycol by stirring an excess of the solid products at room temperature for 5 hours. The mixtures were then filtered, diluted with sample solvent and analysed using HPLC.

We go through one molecule from US7173021B2, “Synthesis of temozolomide esters as potent anticancer pro-drugs for topical and transdermal applications in treatments of cancers” (Tianjin North Pharm Sci-Tech Co., Ltd., priority 2004, dated 2007).

Converted amounts (≈) assume the structure as drawn.

On to `CCCCCCOC(=O)c1ncn2c(=O)n(C)nnc12` [temozolomide hexyl ester, Hexyl 3,4-dihydro-3-methyl-4-oxoimidazo[5,1-d]-1,2,3,5-tetrazine-8-carboxylate], for which the solubility at 5 h amounted to 400 µg/mL (≈ 1430 µM).
